This is an account of results in patent publication US12472176B2, “Pharmaceutical compositions comprising (S)-4-(4-(4-(((2-(2,6-dioxopiperidin-3-yl)-1-oxoisoindolin-4-yl)oxy)methyl)benzyl)piperazin-1-yl)-3-fluorobenzonitrile and methods of using the same” (Celgene Corporation, priority 2020, dated 2025).

A short description of data set [1]: Binary drug-excipient compatibility study (open dish). Type of data set: physicochemical. The method, then: A binary drug-excipient compatibility study was conducted to identify suitable excipients for capsule formulation. Considering the low dose formulation where diluent constitutes majority of the composition, API to diluent ratio was 1:400; for other excipients, the ration was 1:50.
Drug substance and excipients were dispensed at predetermined ratios, mixed using a vortex mixer for 30 seconds, and then dispensed into required number of vials for stability study. These vials (open dish condition) were exposed to 50° C./0% RH and 50° C./75% RH conditions for 2 and 4 weeks respectively. The control samples were stored in a refrigerator at 5° C. Selective samples were tested for chemical degradants and loss of chiral purity (conversion of S-isomer to R-isomer) after 2-weeks.
The following are the major degradation pathways that could be shelf-life limiting: (1) hydrolysis; (2) oxidation; and (3) loss of chiral purity. The total chemical impurities and chiral impurity levels of the samples after stressing for 2-weeks and 4-weeks are compared with the control samples which are shown in FIG. 1A and FIG. 1B, respectively.

The nature of data set [2]: pKa and pHmax of the HBr salt. It counts as physicochemical.
Setting [3] is: control sample, stored at 5° C.

Structures are written as SMILES.

The pKa is the pH at which an ionisable group is half protonated.

Regarding `Br.N#Cc1ccc(N2CCN(Cc3ccc(COc4cccc5c4CN([C@H]4CCC(=O)NC4=O)C5=O)cc3)CC2)c(F)c1` [Compound 1 HBr], the chemical impurity level stood at 0.35% in data set [1] (2-weeks exposure at 50° C./75% RH, open dish) and 0.77% in data set [1] (4-weeks exposure at 50° C./75% RH, open dish). Further, the chiral impurity in data set [1] (4 weeks at 50° C./75% RH, open dish) turned out to be 0.4%; in data set [1] (setting [3]), 0.3%. In addition, the chemical impurities in data set [1] (setting [3]) is 0.2%. Also, the “change in chemical impurities or chiral impurity” value in data set [1] (dry condition (50° C.)) is “no significant change”. Further, in data set [2], the pHmax is 4.62. In data set [2], the pKa is 6.62.
